Results on 14 compounds are retold here after patent US4226883A, “Carbamate derivatives and method for manufacture thereof” (priority 1974, dated 1980).

The structures appear in SMILES notation.

In the first assay the test system is cholinesterase (ChE), susceptible strain. In words: Inhibition of cholinesterase (acetylthiocholine method), susceptible strain enzyme. As to conditions: 10^-3 M. The class given is biochemical, green rice leafhopper, Nephotettix cincticeps. As to the method:
The activity of ChE was performed by the acethyethiocholine method [Ellman (1961), Biochemical Pharmacology 7: 88-95].
[…]. After centrifuged (30,000 g, 10 min.), the supernatant was used as the source of ChE.
(§1) (2) Inhibition: 1.0 ml of enzyme solution was incubated with 0.1 ml of inhibitor which diluted with acetone at 30° C. for 30 min. ((2) solution).
(3) Determination of ChE activity: 1.0 ml of acetylthiochline (3.5/2×10^-2 M), 1.0 ml of DTNB (5,5'-dithiobis-2-nitrobenzoic acid, 2.5×10^-4 M) and 4.0 ml of phosphate buffer (1/15 M, pH 7.4) were added to the (2) solution and incubated at 30° C. for 10 min. After incubation, […] of eserine (2×10^-3 M) was added in order to stop the enzyme reaction and the optical density of the yellow solution was measured at 412 mμ on the spectrophotometer.
Consider `CCCCNC(=O)Oc1ccccc1` [Compound 143], for which the “rate of inhibition (%) in 10^-3 M, S” value stood at 3.3%.
`CCCNC(=O)Oc1ccccc1` [Compound 142, phenyl-N-n-propylcarbamate]: the “rate of inhibition (%) in 10^-3 M, S” value came out at 12.0%.
Regarding `CCNC(=O)Oc1ccccc1` [Compound 141, phenyl-N-ethylcarbamate], the “rate of inhibition (%) in 10^-3 M, S” value is reported as 30.4%.
Still for that read-out and setting: the result for `C=CCNC(=O)Oc1ccccc1` [Compound 144, phenyl-N-allylcarbamate] reads 10.00%.

Staying with this assay, now noted: 50% inhibition concentration, 30° C. 30 min with inhibitor, read-out: Inhibition of Cholinesterase I50 (M) S.
Regarding `CNC(=O)Oc1ccc(SC)c(C)c1` [Compound 135, reference compound], the IC50 amounted to 1e-05 M.
As for `CNC(=O)Oc1cc(C)c(C)cc1C` [Compound 59, reference compound], the IC50 came to 2.3e-06 M.
Regarding `CCCCNC(=O)Oc1ccccc1` [Compound 143], the IC50 is greater than 0.001 M.
Still for that read-out and setting: with `CCCCNC(=O)Oc1cccc(C)c1` [Compound 27] the figure was greater than 0.001 M; with `C#CCOc1cccc(OC(=O)NC)c1` [Compound 100, reference compound], 3.5e-05 M.
Same read-out and setting: the result for `CCC(C)Oc1ccccc1OC(=O)NC` (stereo not shown) [Compound 86, reference compound] reads 2.1e-06 M; that for `CNC(=O)Oc1ccccc1N(C)C` [Compound 106, reference compound], 9.6e-06 M; that for `CCNC(=O)Oc1cccc(OCC)c1` [Compound 93], 0.00044 M.
On the same count and under the same terms, with `CCCCNC(=O)Oc1cc(C)cc(C)c1` [Compound 43] the figure was 0.00068 M; with `CCCNC(=O)Oc1ccccc1` [Compound 142, phenyl-N-n-propylcarbamate], greater than 0.001 M; with `C=CCOc1ccccc1OC(=O)NC` [Compound 88, reference compound], 7e-06 M.
`C=CCOc1cccc(OC(=O)NC)c1` [Compound 98, reference compound]: the IC50 was determined as 4.1e-06 M.
`CCNC(=O)Oc1ccccc1` [Compound 141, phenyl-N-ethylcarbamate]: the IC50 is greater than 0.001 M.
On to `C=CCNC(=O)Oc1ccccc1` [Compound 144, phenyl-N-allylcarbamate], for which the IC50 is greater than 0.001 M.

The test system of the next assay is cholinesterase (ChE), resistant strain.
Assay: not given
As to conditions: ratio of the resistant strain to the susceptible strain (I50); 30 min. The class given is biochemical, green rice leafhopper, Nephotettix cincticeps. As to the method:
After centrifuged (30,000 g, 10 min.), the supernatant was used as the source of ChE.
as §1
(3) Determination of ChE activity: 1.0 ml of acetylthiochline (3.5/2×10^-2 M), 1.0 ml of DTNB (5,5'-dithiobis-2-nitrobenzoic acid, 2.5×10^-4 M) and 4.0 ml of phosphate buffer (1/15 M, pH 7.4) were added to the (2) solution and incubated at 30° C. for 10 min.
Take `CNC(=O)Oc1ccc(SC)c(C)c1` [Compound 135, reference compound]: the “Inhibition of Cholinesterase R/S (resistant ratio)” value (shortened to “Inhibition … (resistant ratio)”) was determined as 3.5.
Consider `CNC(=O)Oc1cc(C)c(C)cc1C` [Compound 59, reference compound], for which the “Inhibition … (resistant ratio)” value is 24.8.
As for `CCCCNC(=O)Oc1cccc(C)c1` [Compound 27], the “Inhibition … (resistant ratio)” value is on record as less than 0.3.
As for `C#CCOc1cccc(OC(=O)NC)c1` [Compound 100, reference compound], the “Inhibition … (resistant ratio)” value is on record as 24.3.
For `CCC(C)Oc1ccccc1OC(=O)NC` (stereo not shown) [Compound 86, reference compound], the “Inhibition … (resistant ratio)” value was found to be 31.9.
Same read-out and setting: the result for `CNC(=O)Oc1ccccc1N(C)C` [Compound 106, reference compound] reads 13.5; that for `CCNC(=O)Oc1cccc(OCC)c1` [Compound 93], 0.8.
The same measure, in the same setting: with `CCCCNC(=O)Oc1cc(C)cc(C)c1` [Compound 43] the figure was 0.04; with `CCCNC(=O)Oc1ccccc1` [Compound 142, phenyl-N-n-propylcarbamate], less than 0.6.
The same measure, in the same setting: the result for `C=CCOc1ccccc1OC(=O)NC` [Compound 88, reference compound] reads 15.7; that for `C=CCOc1cccc(OC(=O)NC)c1` [Compound 98, reference compound], 87.8.
With `C=CCNC(=O)Oc1ccccc1` [Compound 144, phenyl-N-allylcarbamate], the “Inhibition … (resistant ratio)” value is on record as less than 0.5.

The assay is the same for the next values; noted with them: resistant strain; 10^-3 M.
`CCCCNC(=O)Oc1ccccc1` [Compound 143]: the “rate of inhibition (%) in 10^-3 M, R” value is recorded as 46.0%.
On the same count and under the same terms, with `CCNC(=O)Oc1ccccc1` [Compound 141, phenyl-N-ethylcarbamate] the figure was 43.4%.

Staying with this assay, now noted: resistant strain; 50% inhibition concentration; 30° C. 30 min with inhibitor; read-out: Inhibition of Cholinesterase I50 (M) R.
Regarding `CNC(=O)Oc1ccc(SC)c(C)c1` [Compound 135, reference compound], the IC50 was 3.5e-05 M.
Same read-out and setting: the result for `CNC(=O)Oc1cc(C)c(C)cc1C` [Compound 59, reference compound] reads 5.7e-05 M.
The same measure, in the same setting: the result for `CCCCNC(=O)Oc1ccccc1` [Compound 143] reads greater than 0.001 M; that for `CCCCNC(=O)Oc1cccc(C)c1` [Compound 27], 0.00027 M.
On the same count and under the same terms, with `C#CCOc1cccc(OC(=O)NC)c1` [Compound 100, reference compound] the figure was 0.00085 M; with `CCC(C)Oc1ccccc1OC(=O)NC` (stereo not shown) [Compound 86, reference compound], 6.7e-05 M.
On to `CNC(=O)Oc1ccccc1N(C)C` [Compound 106, reference compound], for which the IC50 is 0.00013 M.
The same measure, in the same setting: the result for `CCNC(=O)Oc1cccc(OCC)c1` [Compound 93] reads 0.00035 M; that for `CCCCNC(=O)Oc1cc(C)cc(C)c1` [Compound 43], 2.7e-05 M.
Same read-out and setting: with `CCCNC(=O)Oc1ccccc1` [Compound 142, phenyl-N-n-propylcarbamate] the figure was 0.00066 M; with `C=CCOc1ccccc1OC(=O)NC` [Compound 88, reference compound], 0.00011 M.
As for `C=CCOc1cccc(OC(=O)NC)c1` [Compound 98, reference compound], the IC50 is 0.00036 M.
Take `CCNC(=O)Oc1ccccc1` [Compound 141, phenyl-N-ethylcarbamate]: the IC50 is greater than 0.001 M.
Same read-out and setting: the result for `C=CCNC(=O)Oc1ccccc1` [Compound 144, phenyl-N-allylcarbamate] reads 0.00052 M.
